The structures appear in SMILES notation.

One compound from publication PMC8711236 (Biochemistry, 2021) can be followed below.

This test deals with Cytochrome P450 3A4 (CYP3A4) (Homo sapiens, UniProt P08684). Put plainly: UV-vis spectral equilibrium titration. It counts as binding.
Cytochrome P450 3A4 (CYP3A4), sequence (P08684 14-503): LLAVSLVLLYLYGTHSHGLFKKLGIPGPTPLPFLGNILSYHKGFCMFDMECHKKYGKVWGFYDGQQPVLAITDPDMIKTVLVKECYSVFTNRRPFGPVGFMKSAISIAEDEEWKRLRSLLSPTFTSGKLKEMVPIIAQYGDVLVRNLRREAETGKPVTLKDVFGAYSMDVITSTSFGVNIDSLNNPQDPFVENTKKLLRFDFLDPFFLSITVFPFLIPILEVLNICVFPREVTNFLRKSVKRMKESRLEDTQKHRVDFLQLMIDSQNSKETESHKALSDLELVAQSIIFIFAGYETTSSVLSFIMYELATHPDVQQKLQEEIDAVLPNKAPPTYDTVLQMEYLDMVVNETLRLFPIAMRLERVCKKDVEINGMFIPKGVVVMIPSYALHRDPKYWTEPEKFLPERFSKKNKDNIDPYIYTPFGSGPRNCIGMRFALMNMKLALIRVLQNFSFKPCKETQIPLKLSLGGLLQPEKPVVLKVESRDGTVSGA
Cytochrome P450 3A4 (CYP3A4), sequence (P00388 2-678 partner): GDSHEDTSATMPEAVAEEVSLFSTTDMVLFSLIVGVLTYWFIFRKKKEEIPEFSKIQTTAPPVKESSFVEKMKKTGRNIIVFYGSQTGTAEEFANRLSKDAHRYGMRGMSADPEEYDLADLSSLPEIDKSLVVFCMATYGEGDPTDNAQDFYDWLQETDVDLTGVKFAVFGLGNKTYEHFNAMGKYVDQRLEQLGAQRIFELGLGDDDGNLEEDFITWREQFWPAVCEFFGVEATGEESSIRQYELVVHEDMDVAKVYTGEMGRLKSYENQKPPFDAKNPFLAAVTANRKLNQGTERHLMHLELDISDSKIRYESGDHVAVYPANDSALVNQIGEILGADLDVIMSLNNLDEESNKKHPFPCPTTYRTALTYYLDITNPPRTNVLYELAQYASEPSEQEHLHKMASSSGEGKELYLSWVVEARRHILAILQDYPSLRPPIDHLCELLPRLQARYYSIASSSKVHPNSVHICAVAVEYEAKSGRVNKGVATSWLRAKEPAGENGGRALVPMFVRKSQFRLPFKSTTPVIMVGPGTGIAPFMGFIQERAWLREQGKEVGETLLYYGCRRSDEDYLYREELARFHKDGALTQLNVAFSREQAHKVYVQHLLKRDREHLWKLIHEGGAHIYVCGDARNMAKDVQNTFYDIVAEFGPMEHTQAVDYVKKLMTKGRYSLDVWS

As a reminder, the Kd is the constant that tells how readily two partners part at equilibrium. As to `CC(=O)[C@H]1CC[C@H]2[C@@H]3CCC4=CC(=O)CC[C@]4(C)[C@H]3CC[C@]12C` [PRG, progesterone], the Kd was determined as 35 µM.
